Tested on: A2058 cancer cells
Assay: pEGFP-N3 polyplex transfection of A2058 cells, light microscopy
Format: cell-based
Settings: 72 h; SO1861-EMCH or SO1861 = 40 nM supplemented to PAMAM G5-(PEG N3)3.5 polyplexes
Protocol: Spectrophotometry: Concentrations were determined using either a Thermo Nanodrop 2000 spectrometer or Perkin Elmer Lambda 365 Spectrophotometer. DLS measurements: DLS measurements were performed on a Malvern Nano ZS (Malvern Instruments, U.K.), operating at 633 nm with a 173° scattering angle, at 25 or 37° C. DLS mean diameters were obtained from the intensity particle size distribution provided by Malvern Zetasizer Software. DLS histograms were obtained from the intensity particle size distributions. Zeta-potential: The zeta-potential values of the polyplexes were obtained by laser doppler anemometry (LDA), measuring the mean electrophoretic mobility (Malvern Zetasizer Nano ZS, Malvern Instruments, U.K.). Measurements were performed in 10 mM HEPES pH 7.1, 150 mM NaCl. TEM measurements: TEM measurements were performed on a JEOL JEM-1011 operated at 100 kV electron microscope, equipped with a camera S5 MegaView G2. […] Infrared Spectroscopy: FT-IR spectra were recorded on a Bruker Vertex 70v, equipped with a RockSolid interferometer, after preparing the samples (1-2 mg) as KBr pellets. […] NMR Spectroscopy: 1H NMR spectra were recorded on a 11.7 T Bruker DRX-500 spectrometer. […] Experiments were recorded acquiring 64-512 scans, with a pre-scan delay (d1) of 12 s, and an acquisition time (aq) of 4 s at 300 K. 13C NMR spectrum was recorder on a 9.39 T Varian Innova 400 spectrometer. […]

CC(=O)OC1C(C)OC(OC2C(C)OC(OC(=O)[C@]34CCC(C)(C)CC3C3=CCC5[C@@]6(C)CC[C@H](OC7OC(C(=O)O)C(O)C(OC8OCC(O)C(O)C8O)C7OC7OC(CO)C(O)C(O)C7O)[C@@](C)(/C=N/NC(=O)CCCCCN7C(=O)C=CC7=O)C6CC[C@@]5(C)[C@]3(C)C[C@H]4O)C(OC3OC(C)C(OC4OCC(O)C(OC5OC(CO)C(O)C(O)C5O)C4O)C(O)C3O)C2O)C(O)C1OC1OCC(O)C(O)C1O (stereo partly shown) [SO1861-EMCH]
pEGFP-N3 transfection (eGFP expression): marginal transfection
